From patent US20150315211A1, “SMALL MOLECULES FOR THE MODULATION OF MCL-1 AND METHODS OF MODULATING CELL DEATH, CELL DIVISION, CELL DIFFERENTIATION AND METHODS OF TREATING DISORDERS” (priority 2010, published 2015)

Tested on: MCL-1ΔNΔC
Experiment: High-throughput competitive FP binding screen, FITC-MCL-1 SAHB/MCL-1ΔNΔC interaction
Settings: selectivity for MCL-1ΔNΔC over BCL-XLΔC targeting (BCL-XL % Bound minus MCL-1 % Bound)

Structure (SMILES)	Spec Values
Fc1ccccc1OCCSc1nnc2c(n1)[nH]c1ccccc12	54.35
N#Cc1cc2c([nH]c1=S)CCC2	54.04
CCOc1cccc(/C=N/n2c(S)nnc2-c2ccc(Cl)cc2)c1O	53.75
N#CSC(C#N)Cc1ccccc1 (stereo not drawn)	53.23
O=C(CSc1nnc(-c2ccoc2)c(-c2ccoc2)n1)c1ccc(-c2ccccc2)cc1	53.14
CCCOc1nc2c(c(-c3ccco3)c1C#N)CCCC2	52.96
C=CCSc1nnc(-c2ccc(C(C)(C)C)cc2)n1Cc1ccco1	52.3
O=C(/C=C/c1ccco1)NC(=S)Nc1ccccc1C(F)(F)F	52.25
CCC(c1nnc(SCC(=O)NCCc2ccc(Cl)cc2Cl)o1)N(C)C (stereo not drawn)	52.14
CCn1c(-c2ccccc2)cnc1S	51.73
Cc1ccc(NCc2n[nH]c(=S)n2-c2ccccc2)cc1	51.62
COc1ccc(-n2nc3cc(C)c(N)c(Br)c3n2)cc1	51.41
Cc1nn(-c2ccccc2)c2nc3ccccc3c(N3CCOCC3)c12	50.97
COc1cccc(OCc2nnc(SCc3ccccc3)n2C)c1	50.95
Cc1cccc(CSc2ccc(-c3ccco3)nn2)c1	50.6
CSc1sc(C(=O)/C=C/N(C)C)c(-c2cccs2)c1C#N	50.48

Second part, the compound after the results:

Spec Values	Structure (SMILES)
53.98	O=C(O)C1CCCN(c2nn3cc(-c4ccc(F)cc4)nc3s2)C1 (stereo not drawn)
53.86	CN(C)c1ccc2cccc(O)c2n1
53.61	CCCCCOc1ccc(C(=O)/C=C/C(=O)O)cc1
53.55	Cc1nc2sccn2c1-c1nc(-c2ccc(Br)o2)c(C(=O)c2ccc3c(c2)OCCO3)s1
53.57	CC1CCC[SH](c2cc(O)ccc2O)C1 (stereo not drawn)
53.55	O=c1c(O)cccc2cc(O)c(O)c(O)c12
53.29	CC(/N=C/c1cccc(O)c1O)c1ccccc1 (stereo not drawn)
53.12	Oc1ccc(CNc2ccccc2O)cc1
52.91	NC1=C(c2nc3ccccc3s2)CC(=O)N1CCc1ccccc1
52.6	C/C(=N\NC(=S)Nc1ccccc1C)c1ccc(O)cc1
52.28	COC(=O)c1c(NC(=S)Nn2cnnc2)sc2c1CCC(C)C2 (stereo not drawn)
52.14	O=C(/C=C/c1ccc(Br)o1)OCC(=O)c1c[nH]c2ccccc12
51.9	CCN1C(=O)C2Cc3cc(OC)c(OC)cc3CN2C1=S (stereo not drawn)
51.73	C=C/C(=C\C)N(CC)S(=O)(=O)c1ccc(Oc2ccc(-n3ccnc3)cc2)nc1
50.9	CCOC(=O)c1c(C)oc2c1c1c(c3ccccc32)OCN(C2CC(C)(C)NC(C)(C)C2)C1
50.73	CC1CCC(C(C)C)C(OC(=O)COC(=O)c2ccc(O)cc2)C1 (stereo not drawn)

Target: BCL-XLΔC (Homo sapiens, UniProt Q07817)
Experiment: High-throughput competitive FP binding screen, FITC-BAD BH3/BCL-XLΔC interaction
Settings: FITC-BAD BH3/BCL-XLΔC interaction pair, competitive FP screen

Chain of BCL-XLΔC (Q07817 1-212 limits assumed, stated change not applied): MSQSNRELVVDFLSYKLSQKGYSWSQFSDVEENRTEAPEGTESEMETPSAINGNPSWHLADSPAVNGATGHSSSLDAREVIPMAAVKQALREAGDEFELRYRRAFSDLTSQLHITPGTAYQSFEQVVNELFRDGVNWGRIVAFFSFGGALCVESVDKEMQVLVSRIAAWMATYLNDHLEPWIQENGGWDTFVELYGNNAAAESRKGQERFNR

Structure (SMILES)	BCL-XL % Bound
Fc1ccccc1OCCSc1nnc2c(n1)[nH]c1ccccc12	99.56%
N#Cc1cc2c([nH]c1=S)CCC2	86.64%
CCOc1cccc(/C=N/n2c(S)nnc2-c2ccc(Cl)cc2)c1O	96.58%
N#CSC(C#N)Cc1ccccc1 (stereo not drawn)	103.6%
O=C(CSc1nnc(-c2ccoc2)c(-c2ccoc2)n1)c1ccc(-c2ccccc2)cc1	98.52%
CCCOc1nc2c(c(-c3ccco3)c1C#N)CCCC2	83.67%
C=CCSc1nnc(-c2ccc(C(C)(C)C)cc2)n1Cc1ccco1	122.3%
O=C(/C=C/c1ccco1)NC(=S)Nc1ccccc1C(F)(F)F	99.25%
CCC(c1nnc(SCC(=O)NCCc2ccc(Cl)cc2Cl)o1)N(C)C (stereo not drawn)	101.6%
CCn1c(-c2ccccc2)cnc1S	105.8%
Cc1ccc(NCc2n[nH]c(=S)n2-c2ccccc2)cc1	94.84%
COc1ccc(-n2nc3cc(C)c(N)c(Br)c3n2)cc1	83.97%
Cc1nn(-c2ccccc2)c2nc3ccccc3c(N3CCOCC3)c12	98.28%
COc1cccc(OCc2nnc(SCc3ccccc3)n2C)c1	97.51%
Cc1cccc(CSc2ccc(-c3ccco3)nn2)c1	95.36%
CSc1sc(C(=O)/C=C/N(C)C)c(-c2cccs2)c1C#N	30.42%

Further lines, results first:

BCL-XL % Bound	Structure (SMILES)
82.02%	O=C(O)C1CCCN(c2nn3cc(-c4ccc(F)cc4)nc3s2)C1 (stereo not drawn)
95.09%	CN(C)c1ccc2cccc(O)c2n1
97.46%	CCCCCOc1ccc(C(=O)/C=C/C(=O)O)cc1
93.3%	Cc1nc2sccn2c1-c1nc(-c2ccc(Br)o2)c(C(=O)c2ccc3c(c2)OCCO3)s1
94.72%	CC1CCC[SH](c2cc(O)ccc2O)C1 (stereo not drawn)
33.74%	O=c1c(O)cccc2cc(O)c(O)c(O)c12
93.71%	CC(/N=C/c1cccc(O)c1O)c1ccccc1 (stereo not drawn)
89.38%	Oc1ccc(CNc2ccccc2O)cc1
108.5%	NC1=C(c2nc3ccccc3s2)CC(=O)N1CCc1ccccc1
103.4%	C/C(=N\NC(=S)Nc1ccccc1C)c1ccc(O)cc1
77.55%	COC(=O)c1c(NC(=S)Nn2cnnc2)sc2c1CCC(C)C2 (stereo not drawn)
105.6%	O=C(/C=C/c1ccc(Br)o1)OCC(=O)c1c[nH]c2ccccc12
91.73%	CCN1C(=O)C2Cc3cc(OC)c(OC)cc3CN2C1=S (stereo not drawn)
102.9%	C=C/C(=C\C)N(CC)S(=O)(=O)c1ccc(Oc2ccc(-n3ccnc3)cc2)nc1
85%	CCOC(=O)c1c(C)oc2c1c1c(c3ccccc32)OCN(C2CC(C)(C)NC(C)(C)C2)C1
106.5%	CC1CCC(C(C)C)C(OC(=O)COC(=O)c2ccc(O)cc2)C1 (stereo not drawn)

Target: MCL-1ΔNΔC (Homo sapiens, UniProt Q07820)
Experiment: High-throughput competitive FP binding screen, FITC-MCL-1 SAHB/MCL-1ΔNΔC interaction
Parameters: the C-terminal alpha-helix was deleted from each of these constructs; GST (N, cleaved yes); made in house
Settings: FITC-MCL-1 SAHB/MCL-1ΔNΔC interaction pair, competitive FP screen

Chain of MCL-1ΔNΔC (Homo sapiens, UniProt Q07820) (Q07820 172-320 limits assumed, stated change not applied): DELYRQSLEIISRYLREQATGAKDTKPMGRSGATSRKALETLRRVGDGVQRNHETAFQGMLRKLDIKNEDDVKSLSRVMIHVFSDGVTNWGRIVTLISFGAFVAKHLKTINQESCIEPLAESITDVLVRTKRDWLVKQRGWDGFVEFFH

Structure (SMILES)	MCL-1% Bound
Fc1ccccc1OCCSc1nnc2c(n1)[nH]c1ccccc12	45.2%
N#Cc1cc2c([nH]c1=S)CCC2	32.6%
CCOc1cccc(/C=N/n2c(S)nnc2-c2ccc(Cl)cc2)c1O	42.83%
N#CSC(C#N)Cc1ccccc1 (stereo not drawn)	50.39%
O=C(CSc1nnc(-c2ccoc2)c(-c2ccoc2)n1)c1ccc(-c2ccccc2)cc1	45.38%
CCCOc1nc2c(c(-c3ccco3)c1C#N)CCCC2	30.71%
C=CCSc1nnc(-c2ccc(C(C)(C)C)cc2)n1Cc1ccco1	69.99%
O=C(/C=C/c1ccco1)NC(=S)Nc1ccccc1C(F)(F)F	47.01%
CCC(c1nnc(SCC(=O)NCCc2ccc(Cl)cc2Cl)o1)N(C)C (stereo not drawn)	49.44%
CCn1c(-c2ccccc2)cnc1S	54.03%
Cc1ccc(NCc2n[nH]c(=S)n2-c2ccccc2)cc1	43.22%
COc1ccc(-n2nc3cc(C)c(N)c(Br)c3n2)cc1	32.56%
Cc1nn(-c2ccccc2)c2nc3ccccc3c(N3CCOCC3)c12	47.31%
COc1cccc(OCc2nnc(SCc3ccccc3)n2C)c1	46.56%
Cc1cccc(CSc2ccc(-c3ccco3)nn2)c1	44.76%
CSc1sc(C(=O)/C=C/N(C)C)c(-c2cccs2)c1C#N	−20.06%

Second part, the compound after the results:

MCL-1% Bound	Structure (SMILES)
28.04%	O=C(O)C1CCCN(c2nn3cc(-c4ccc(F)cc4)nc3s2)C1 (stereo not drawn)
41.22%	CN(C)c1ccc2cccc(O)c2n1
43.85%	CCCCCOc1ccc(C(=O)/C=C/C(=O)O)cc1
39.75%	Cc1nc2sccn2c1-c1nc(-c2ccc(Br)o2)c(C(=O)c2ccc3c(c2)OCCO3)s1
41.16%	CC1CCC[SH](c2cc(O)ccc2O)C1 (stereo not drawn)
−19.81%	O=c1c(O)cccc2cc(O)c(O)c(O)c12
40.42%	CC(/N=C/c1cccc(O)c1O)c1ccccc1 (stereo not drawn)
36.26%	Oc1ccc(CNc2ccccc2O)cc1
55.57%	NC1=C(c2nc3ccccc3s2)CC(=O)N1CCc1ccccc1
50.82%	C/C(=N\NC(=S)Nc1ccccc1C)c1ccc(O)cc1
25.26%	COC(=O)c1c(NC(=S)Nn2cnnc2)sc2c1CCC(C)C2 (stereo not drawn)
53.49%	O=C(/C=C/c1ccc(Br)o1)OCC(=O)c1c[nH]c2ccccc12
39.84%	CCN1C(=O)C2Cc3cc(OC)c(OC)cc3CN2C1=S (stereo not drawn)
51.21%	C=C/C(=C\C)N(CC)S(=O)(=O)c1ccc(Oc2ccc(-n3ccnc3)cc2)nc1
34.11%	CCOC(=O)c1c(C)oc2c1c1c(c3ccccc32)OCN(C2CC(C)(C)NC(C)(C)C2)C1
55.74%	CC1CCC(C(C)C)C(OC(=O)COC(=O)c2ccc(O)cc2)C1 (stereo not drawn)
